Data published in patent US9029553B2, “2-anilino nicotinyl linked 2-amino benzothiazole conjugates and process for the preparation thereof” (Council of Scientific & Industrial Research, priority 2011, dated 2015).

Experiments:
[1] = system: Ehrlich Ascites Carcinoma (EAC); assay: In vivo anticancer activity, Ehrlich ascites carcinoma; set-up: species or system Swiss mice; conditions: for No. of deaths / toxicity to animals: EAC mice
Description: Model: Ehrlich Ascites Carcinoma (EAC)
Ehrlich ascites carcinoma (EAC) cells were collected from the peritoneal cavity of the swiss mice harbouring 8-10 days old ascitic tumor. 1×10^7 EAC cells were injected intraperitoneally in Swiss mice selected for the experiment on day 0. The next day, animals were randomized and divided into different groups. The treatment groups contained 7 animals each and control group contained 10 animals. Treatment groups were treated with different doses of test substances intraperitoneally from day 1-9. One of the treatment group received 5-fluorouracil (20 mg/kg, i.p) and it served as positive control. The tumor bearing control group was similarly administered normal saline (0.2 ml, i.p.). On day 12, animals were sacrificed and ascitic fluid was collected from peritoneal cavity of each mouse for the evaluation of tumor growth. Percent tumor growth inhibition was calculated based on the total number of tumor cells present in the peritoneal cavity as on day 12 of the experiment using the following formula.

[2] = system: HL-60 cells; assay: Flow cytometric analysis of reactive oxygen species (DCFH-DA); assay type: cell-based, human; conditions: 1 μM, 24 h, HL-60, compared to control
Description: It was clear that these compounds were cytotoxic and induce apoptosis in HL-60 cells, now we have to found out the early events which were responsible for the induction of apoptosis like reactive oxygen species (ROS) or nitric oxide (NO) generation. Intracellular peroxide (ROS) in the cells was measured by DCFH-DA by using flow cytometry. Cells were incubated with tested compounds at 1 μM for 24 h in HL-60 cells and analyzed by flow cytometry after double staining with DCFH-DA (FIG. 7). Cells were analyzed for fluorescence intensity in FL1 vs. cell count. There was hardly any DCF fluorescence (ROS positive cells) in the untreated HL-60 cells, and this status remained unchanged when cells were incubated for 24 hr with compounds 7 and 8. […] Compounds 4 and 6 also induce the generation of peroxide in HL-60 cells (31 and 16% increase, respectively).

[3] = system: HL-60 cells; assay: Cell cycle analysis (FACS) by flow cytometry; assay type: cell-based, human; conditions: 1 μM, up to 24 h
From the text: The damage was more apparent with compound 8 and 6 (90% and 60% DNA damaged, respectively).

[4] = system: IMR-32; assay: SRB percentage growth inhibition (NCI protocol); assay type: cell-based; conditions: Homo sapiens, 48 hrs exposure
Description: (§1) 2-Anilino nicotinyl linked 2-amino benzothiazoles conjugates of formula 4-8 have been tested against ten and eleven human cancer cell lines for 10 and 1 μM respectively derived from nine cancer types (leukemia, non-small cell lung cancer, colon cancer, CNS cancer, melanoma, ovarian cancer, renal cancer, prostate cancer and breast cancer) as per NCI protocol. For each compound, percentage of growth inhibition was calculated for individual cell lines at a minimum of two concentrations (1 and 10 μM). A protocol of 48 hrs continuous drug exposure was used, and a sulforhodamine B (SRB) protein assay was used to estimate cell viability or growth. The percentage of growth inhibition compared with the control was calculated in table 1 and table 2.

[5] = system: Sw-620; assay: SRB percentage growth inhibition (NCI protocol); assay type: cell-based; conditions: Homo sapiens, 48 hrs exposure
Description: as §1

[6] = system: DU145; assay: SRB percentage growth inhibition (NCI protocol); assay type: cell-based; conditions: Homo sapiens, DU-145, 48 hrs exposure
Description: as §1

[7] = system: 502713; assay: SRB percentage growth inhibition (NCI protocol); assay type: cell-based; conditions: Homo sapiens, 48 hrs exposure
Description: as §1

[8] = system: HEP-2; assay: SRB percentage growth inhibition (NCI protocol); assay type: cell-based; conditions: Homo sapiens, 48 hrs exposure
Description: as §1

[9] = system: MCF-7; assay: SRB percentage growth inhibition (NCI protocol); assay type: cell-based; conditions: Homo sapiens, MCF7, 48 hrs exposure
Description: as §1

[10] = system: Hela; assay: SRB percentage growth inhibition (NCI protocol); assay type: cell-based; conditions: Homo sapiens, 48 hrs exposure
Description: as §1

[11] = system: A549; assay: SRB percentage growth inhibition (NCI protocol); assay type: cell-based; conditions: Homo sapiens, 48 hrs exposure
Description: as §1

[12] = system: PC-3; assay: SRB percentage growth inhibition (NCI protocol); assay type: cell-based; conditions: Homo sapiens, 48 hrs exposure
Description: as §1

[13] = system: OVCAR-5; assay: SRB percentage growth inhibition (NCI protocol); assay type: cell-based; conditions: Homo sapiens, 48 hrs exposure
Description: as §1

[14] = system: SK-NS-H; assay: SRB percentage growth inhibition (NCI protocol); assay type: cell-based; conditions: Homo sapiens, SK-N-SH, 48 hrs exposure
Description: as §1

[15] = system: IGR-OV-1; assay: SRB percentage growth inhibition (NCI protocol); assay type: cell-based; conditions: Homo sapiens, IGROV-1, 48 hrs exposure
Description: as §1

[16] = system: HCT-15; assay: SRB percentage growth inhibition (NCI protocol); assay type: cell-based; conditions: Homo sapiens, 48 hrs exposure
Description: as §1

[17] = system: SiHa; assay: SRB percentage growth inhibition (NCI protocol); assay type: cell-based; conditions: Homo sapiens, 48 hrs exposure
Description: as §1

[18] = system: MCF-7; assay: MTT inhibition of cell proliferation; assay type: cell-based; conditions: Homo sapiens, MCF7, 48 h
From the text: (§2) In order to determine the mode of action of cell death in cancer cells, first we explored the cytotoxic potential of different structural analogs of benzothiazoles on different human cancer cell lines. […] These compounds have limited or no cytotoxicity to cervical cancer SiHa, HeLa cells, breast cancer MCF-7 cells and colon cancer HCT-15 cells.

[19] = system: Hela; assay: MTT inhibition of cell proliferation; assay type: cell-based; conditions: Homo sapiens, 48 h
From the text: as §2

[20] = system: HL-60; assay: MTT inhibition of cell proliferation; assay type: cell-based; conditions: Homo sapiens, 48 h
From the text: as §2

[21] = system: HCT-15; assay: MTT inhibition of cell proliferation; assay type: cell-based; conditions: Homo sapiens, 48 h
From the text: as §2

[22] = system: SiHa; assay: MTT inhibition of cell proliferation; assay type: cell-based; conditions: Homo sapiens, 48 h
From the text: as §2

[23] = system: survivin; assay: Western blot of cell death targets; assay type: cell-based, human; conditions: 1 μM, 24 h, HL-60
Description: Apoptosis was further characterized by the western blot analysis. Cells were treated with tested compounds at 1 μM for 24 h and expression of key apoptotic proteins like NF-kB, survivin; PARP, Bcl-2 and HSP-90 were analyzed through western blot. Both NF-kB and survivin are highly expressed in HL-60 cells. NF-kB is a transcriptional factor regulating the expression of several genes in the cells whereas survivin is a cell cycle regulated inhibitor of apoptosis protein (IAP), mostly over expressed in most of the tumors.

[24] = system: normal monkey kidney CV-1 cells; assay: MTT cytotoxicity in normal cells; assay type: cell-based; conditions: Primates
Description: These compounds were also evaluated for their cytotoxic potential in normal cells and for these purpose their IC50 value were also determine in normal monkey kidney CV-1 cells by using MTT method. The ratios of normal to cancer cells IC50 value were ranges from 10-1000 times (Table 5).

For `O=C(Nc1nc2ccc([N+](=O)[O-])cc2s1)c1cccnc1Nc1ccc(F)cc1` [Compound 6, N3-(6-nitro-1,3-benzothiazol-2-yl)-2-(4-fluoroanilino)nicotinamide], the “Growth Inhibition (%)” value ([1]; 20 mg/Kg i.p. day 1-9, read day 12) was 22.18%, the “No. of deaths / toxicity to animals” value ([1]; 20 mg/Kg i.p.) was 0/7 and the “Growth Inhibition (%)” value ([1]; 30 mg/Kg i.p. day 1-9, read day 12) was 43.11%. For the same compound, the “No. of deaths / toxicity to animals” value ([1]; 30 mg/Kg i.p.) was 0/7, the “Growth Inhibition (%)” value ([1]; 40 mg/Kg i.p. day 1-9, read day 12) was 68.11% and the “No. of deaths / toxicity to animals” value ([1]; 40 mg/Kg i.p.) was 4/7 and considerable toxicity. For the same compound, the “No. of deaths / toxicity to animals” value ([1]; 40 mg/Kg i.p., listed as Comp 6) was 4/7, the “increase in DCF positive cell population (ROS)” value [2] was 16% and the “DNA damaged (sub-G0 fraction)” value [3] was 60%. For the same compound, the inhibition at 1 µM ([4]; 1 μM) was 31%, the inhibition at 10 µM ([4]; 10 μM) was 33% and the inhibition at 1 µM ([5]; 1 μM) was 9%. It also gave an inhibition at 10 µM ([5]; 10 μM) of 67%, an inhibition at 1 µM ([6]; 1 μM) of 31% and an inhibition at 10 µM ([6]; 10 μM) of 51%. For the same compound, the inhibition at 10 µM [7] was 66%, the inhibition at 1 µM ([8]; 1 μM) was 53% and the inhibition at 10 µM ([8]; 10 μM) was 52%. For the same compound, the inhibition at 1 µM [9] was 39%, the inhibition at 1 µM [10] was 40% and the inhibition at 1 µM ([11]; 1 μM) was 27%. The inhibition at 10 µM ([11]; 10 μM) was 18%, the inhibition at 1 µM [12] was 26% and the inhibition at 1 µM ([13]; 1 μM) was 27%. The inhibition at 10 µM ([13]; 10 μM) was 53%, the inhibition at 10 µM [14] was 63% and the inhibition at 1 µM [15] was 25%. The inhibition at 1 µM ([16]; 1 μM) was 22%, the inhibition at 10 µM ([16]; 10 μM) was 55% and the inhibition at 10 µM [17] was 23%. The IC50 [18] was > 100 µM, the IC50 [19] was 8 µM and the IC50 [20] was 0.3 µM. The IC50 [21] was > 100 µM, the IC50 [22] was 7 µM and the “survivin level (western blot)” value [23] was “highest inhibition potential”. The IC50 [24] was 15 µM.
